# Target: T1, 15-PGDH (Homo sapiens, UniProt P15428)
# T1 construct: purchased Sino Biological Inc. 11205-H08E
# T1 sequence (P15428 1-266): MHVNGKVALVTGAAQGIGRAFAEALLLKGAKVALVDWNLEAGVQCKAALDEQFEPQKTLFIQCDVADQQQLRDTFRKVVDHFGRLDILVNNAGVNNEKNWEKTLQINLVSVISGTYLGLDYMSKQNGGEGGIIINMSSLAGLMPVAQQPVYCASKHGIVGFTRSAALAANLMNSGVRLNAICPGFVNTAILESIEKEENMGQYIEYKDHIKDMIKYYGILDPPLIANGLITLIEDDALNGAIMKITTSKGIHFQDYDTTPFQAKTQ
# Assay: Detection of activity of 15-PGDH kinase (enzyme inhibition, fluorescence slope)
# Format: biochemical
# Conditions: inhibitory activity against 15-PGDH enzyme; substrates PGF2α and β-NAD; fluorescence Ex/Em=340/450
# Method: [table] • a. A solution of pH 7.5 containing 50 mM Tris-HCl, 0.01% Tween 20 was prepared with ultrapure water as a reaction buffer; • b. A 10 mM mother liquor of the compound to be tested was prepared with DMSO, and then the reaction buffer was used to dilute the mother liquor of the compound to be tested to obtain solution 1 of the compound to be tested at a concentration of 4000 nM, and then the solution 1 of the compound to be tested was serially diluted into solutions 2-10 of the compound to be tested at 9 concentrations with a gradient difference of three-fold. 5 μL of each of solutions 1-10 of the compound to be tested was taken and added into a 384-well plate as test wells; • c. 5 μL of the reaction buffer was added to the 384-well plate as positive control and blank control wells; • d. The reaction buffer was used to prepare a 15-PGDH protein solution at a concentration of 5 ng/μL, 5 μL of the 15-PGDH protein solution was taken and added to the test wells and positive control wells, and 5 μL of the reaction buffer was added to the blank control wells at the same time, then the plate was centrifuged at 2000 rpm for 30 seconds; • e. The reaction buffer was used to prepare 5 mM R-NAD and 2 mM PGF2α, respectively, which were mixed at 1:1 by volume to obtain a substrate mixture, 10 μL of the substrate mixture was taken and added to the test wells, positive control wells and blank control wells to start the reaction; • f. The fluorescence signal value (Ex/Em=340/450) of each well was detected continuously by using a multifunctional microplate reader. • a) Continuous fluorescence signal values were analyzed by using the “kinetic calculations-slope calculation method” in the PHERAstar Data analysis software to obtain the slope of each test well; • b) The inhibition rate % was calculated by using the following formula: [formula] • c) Calculation of IC50 and plotting of inhibition rate-dose curves: IC50 values were calculated by fitting compound concentrations and corresponding inhibition rates with nonlinear regression (dose response-variable slope) via using GraphPad Prism 6.0. The formula is shown below: [formula] wherein X is a log value of a concentration of the compound, and Y is inhibition rate %.
row,Structure (SMILES),IC50
1,CCCC[S+]([O-])c1sc2nc(-c3ccccc3)n3cnnc3c2c1N (stereo not drawn) [Example 18],10 to 15 nM
2,CC(C)(C)[S+]([O-])c1sc2nc(-c3ccccc3)n3ccnc3c2c1N (stereo not drawn) [Example 26],10 to 15 nM
3,CCCC[S+]([O-])c1sc2nc(-c3ccccc3)n3cc(C(F)(F)F)nc3c2c1N (stereo not drawn) [Example 6],4 to 10 nM
4,"CCCC[S+]([O-])c1sc2nc(-c3ccccc3)n3ccnc3c2c1N (stereo not drawn) [Example 1, 8-(butylsulfinyl)-5-phenylimidazo[1,2-c]thieno[3,2-e]pyrimidin-9-amine]",4 to 10 nM
5,CC(C)C[S+]([O-])c1sc2nc(-c3ccccc3)n3ccnc3c2c1N (stereo not drawn) [Example 25],> 30 nM
6,CCCC[S+]([O-])c1sc2nc(-c3ccsc3)n3ccnc3c2c1N (stereo not drawn) [Example 14],1.5 to 4 nM
7,CCCC[S+]([O-])c1sc2nc(-c3ccc(C(=O)O)cc3)n3ccnc3c2c1N (stereo not drawn) [Example 22],1.5 to 4 nM
8,CCCC[S+]([O-])c1sc2nc(-c3ccccc3)n3ccnc3c2c1C (stereo not drawn) [Example 20],15 to 30 nM
9,Nc1c([S+]([O-])C2CCCCC2)sc2nc(-c3ccccc3)n3ccnc3c12 (stereo not drawn) [Example 8],4 to 10 nM
10,CCCC[S+]([O-])c1sc2nc(-c3ccncc3)n3ccnc3c2c1N (stereo not drawn) [Example 16],1.5 to 4 nM
11,Nc1c([S+]([O-])C2CCCC2)sc2nc(-c3ccccc3)n3ccnc3c12 (stereo not drawn) [Example 7],4 to 10 nM
12,CCCC[S+]([O-])c1sc2nc(-c3cnccn3)n3ccnc3c2c1N (stereo not drawn) [Example 10],4 to 10 nM
13,Nc1c([S+]([O-])C2COC2)sc2nc(-c3ccccc3)n3ccnc3c12 (stereo not drawn) [Example 9],10 to 15 nM
14,CCCC[S+]([O-])c1sc2nc(-c3cnn(C)c3)n3ccnc3c2c1N (stereo not drawn) [Example 15],1.5 to 4 nM
15,CCCC[S+]([O-])c1sc2nc(-c3ccc4c(c3)CN(C)C4=O)n3ccnc3c2c1N (stereo not drawn) [Example 21],1.5 to 4 nM
16,CCCC[S+]([O-])c1sc2nc(-c3ccc(N4CCOCC4)nc3)n3ccnc3c2c1N (stereo not drawn) [Example 17],4 to 10 nM
17,CCC(C)C[S+]([O-])c1sc2nc(-c3ccccc3)n3ccnc3c2c1N (stereo not drawn) [Example 24],4 to 10 nM
18,CCCC[S+]([O-])c1sc2nc(-c3cccnc3)n3ccnc3c2c1N (stereo not drawn) [Example 13],< 1.5 nM
19,"CCCC[S+]([O-])c1sc2nc(-c3ccccc3)n3c(C)nnc3c2c1N (stereo not drawn) [Example 4, 8-(butylsulfinyl)-3-methyl-5-phenylthieno[3,2-e][1,2,4]triazolo[4,3-c]pyrimidin-9-amine]",4 to 10 nM
20,CCCC[S+]([O-])c1sc2nc(-c3ccccc3)n3cc(C)nc3c2c1N (stereo not drawn) [Example 5],< 1.5 nM
21,CCCC[S+]([O-])c1sc2nc(-c3ccccc3)n3c(C)cnc3c2c1N (stereo not drawn) [Example 19],1.5 to 4 nM
22,Nc1c([S+]([O-])Cc2ccccc2)sc2nc(-c3ccccc3)n3ccnc3c12 (stereo not drawn) [Example 23],10 to 15 nM
23,CCCC[S+]([O-])c1sc2nc(-c3ncccn3)n3ccnc3c2c1N (stereo not drawn) [Example 12],1.5 to 4 nM
24,CCCC[S+]([O-])c1sc2nc(-c3nccs3)n3ccnc3c2c1N (stereo not drawn) [Example 11],1.5 to 4 nM

# — patent publication US20260176276A1, “COMPOUND FOR REGULATING AND CONTROLLING ACTIVITY OF 15-PGDH AND PREPARATION METHOD THEREFOR” (SCINNOHUB PHARMACEUTICAL CO., LTD, priority 2022, published 2026)
